# Assay results as given in patent publication US7294715B2, “Aporphine and oxoaporphine compounds and pharmaceutical use thereof” (Lotus Pharmaceutical Co., Ltd., priority 2003, dated 2007).
# Key:
# [1] = tested on: regional myocardial ischemia and reperfusion (LAD occlusion); test: Infarct size in a rat model of regional myocardial ischemia and reperfusion; assay type: in vivo; conditions: iv
# Method: Seventy two male Wistar rats (215-300 g, Charles River, Margate, U.K.) were anaesthetized with thiopentone sodium (Intraval®, 120 mg/kg i.p.; Rhone-Merrieux, Essex, U.K.). The rats were tracheotomised and ventilated with a Harvard ventilator (70 strokes/min, tidal volume: 8-10 ml/kg, inspiratory oxygen concentration: 30%). Body temperature was maintained at 38±1° C. The right carotid artery was cannulated and connected to a pressure transducer (MLT 844, AD Instruments Ltd, Hastings, UK) to monitor mean arterial blood pressure and heart rate, which were continuously recorded on a data acquisition system (Powerlab® Version 4.0.4, AD Instruments, Hastings, UK) installed on a Dell Dimension 4100 personal computer, throughout the experiment. The right jugular vein was cannulated for the administration of test compound and Evans Blue dye (at the end of the experiment). A parasternal thoracotomy was performed, the heart was suspended in a temporary pericardial cradle and a snare occluder was placed around the left anterior descending coronary artery (LAD). After completion of the surgical procedure the animals were allowed to stabilize for 30 min before LAD ligation. The coronary artery was occluded at time 0 by tightening of the occluder. After 25 min of acute myocardial ischemia, the occluder was released to allow reperfusion for 2 h.
# The test compounds were administered as a slow intravenous injection (i.v.) 5 min prior to the onset of reperfusion of the ischemic heart. Following the 2 h reperfusion period, the coronary artery was re-occluded and Evans Blue dye (1 ml of 2% w/v) was injected into the left ventricle, via the right jugular vein cannula, to distinguish between perfused and non-perfused (AAR) sections of the heart. The Evans Blue solution stains the perfused myocardium, while the occluded vascular bed remains uncolored. The animals were sacrificed with an overdose of anesthetic and the heart excised. The heart was sectioned into slices of 3-4 mm thick, the right ventricular wall was removed, and the AAR (pink) was separated from the non-ischemic (blue) area. […]
# [2] = tested on: Langendorff perfused rat hearts; test: Coronary flow in Langendorff perfused rat hearts; conditions: FIG. 3
# Method: Adult male Wistar rats weighing 275-325 g, were intraperitoneally anesthetized with sodium pentobarbital (50 mg·kg^−1) and given heparin (300 Ukg·kg^−1) by the same route. Hearts were rapidly excised and immersed in 37° C. perfusion medium. The aorta was cannulated and retrograde-perfused at 80 mmHg with Tyrode's solution containing 120 mM NaCl, 25 mM NaHCO3, 3 mM KCl, 1.2 mM NaH2PO4, 2.5 mM CaCl2, 1.2 mM MgCl2, and […] 5.5 mM glucose. The perfusate was equilibrated with 95% O2, 5% CO2 at 37° C. Perfusion pressure was monitored using a MLT844/D pressure transducer (Capto, Horten, Norway) connected to a PowerLab (ADInstruments, Castle Hill, Australia). The coronary effluent was collected for the measurement of coronary flow.
# [3] = Hemodynamic effects (blood pressure, heart rate) in rats; assay type: in vivo, rat
smiles,measurement,setting,value
"COc1cc2c(cc1OC)-c1c(OC)c(OC)cc3c1C(C2)N(CCOc1ccccc1OC)CC3 (stereo not shown) [Compound 16, N-[2-(2-methoxyphenoxyl)]ethylnorglaucine]",infarct size,[1]; 0.5 mg/kg,47±4 % of the area at risk
same,infarct size,[1]; 1.5 mg/kg,47±2 % of the area at risk
same,coronary blood flow,[2],increasing coronary blood flow
same,duration of blood pressure decrease,[3],about 45 minutes
same,effects on blood pressure,"[3]; 0.5 mg/kg to 50 mg/kg, FIG. 5A",no significant effects
same,effects on heart rate,"[3]; 0.5 mg/kg to 50 mg/kg, FIG. 5B",no significant effects
same,time to recovery of heart rates after drug application,[3]; 50 mg/kg,45 min
same,heart rates after drug,"[3]; 50 mg/kg, from 361.5±9.3 bpm, p<0.05",295.4±16.8 bpm
same,"heart rates, % of baseline values","[3]; 50 mg/kg, p<0.05",81.5±2.8 % of baseline values
same,mean blood pressure after drug,"[3]; at 3 minutes after drug administration, from 74.6±5.7 mmHg",62.9±2.2 mmHg
